# According to PubChem BioAssay (NCI):
#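 Abbreviation: GI50, concentration required for 50% inhibition of growth. The concentration for full growth arrest is given as TGI.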
# What was measured:
# Assay in all cases: NCI tumour cell line growth inhibition, 384-well format
# HCC-2998 colon = test system: HCC-2998 colon
# K-562 leukemia = test system: K-562 leukemia
# KM12 colon = test system: KM12 colon
# NCI/ADR-RES ovarian = test system: NCI/ADR-RES ovarian
# LOX IMVI melanoma = test system: LOX IMVI melanoma
# CCRF-CEM leukemia = test system: CCRF-CEM leukemia
# NCI-H522 lung = test system: NCI-H522 lung
# EKVX NSCLC = test system: EKVX NSCLC
# A549 NSCLC = test system: A549 NSCLC
# RXF 393 renal = test system: RXF 393 renal
# MDA-MB-468 breast = test system: MDA-MB-468 breast
# M14 melanoma = test system: M14 melanoma
# SK-MEL-2 melanoma = test system: SK-MEL-2 melanoma
compound,measurement,setting,value
O=C(Nc1cccc(NS(=O)(=O)c2ccc(F)cc2)c1)c1ccc(-c2ccccc2)cc1,GI50,HCC-2998 colon,6.02 µM
same,TGI,HCC-2998 colon,21.2 µM
same,GI50,K-562 leukemia,2.6 µM
same,TGI,K-562 leukemia,11.2 µM
same,GI50,KM12 colon,3.62 µM
same,TGI,KM12 colon,13.2 µM
same,GI50,NCI/ADR-RES ovarian,2.55 µM
same,TGI,NCI/ADR-RES ovarian,9.38 µM
same,GI50,LOX IMVI melanoma,3.31 µM
same,TGI,LOX IMVI melanoma,11.4 µM
same,GI50,CCRF-CEM leukemia,2.33 µM
same,TGI,CCRF-CEM leukemia,5.8 µM
same,GI50,NCI-H522 lung,3.6 µM
same,TGI,NCI-H522 lung,15.2 µM
same,GI50,EKVX NSCLC,3.09 µM
same,TGI,EKVX NSCLC,12.3 µM
same,GI50,A549 NSCLC,4.07 µM
same,TGI,A549 NSCLC,> 100 µM
same,GI50,RXF 393 renal,2.02 µM
same,TGI,RXF 393 renal,4.91 µM
same,GI50,MDA-MB-468 breast,3.1 µM
same,TGI,MDA-MB-468 breast,8.43 µM
same,GI50,M14 melanoma,6.38 µM
same,TGI,M14 melanoma,19.5 µM
same,GI50,SK-MEL-2 melanoma,12.9 µM
same,TGI,SK-MEL-2 melanoma,26.3 µM
